Reference: ChEMBL document CHEMBL5357013, “Identification of Spiro[chromene-2,4'-piperidine]s as Potent, Selective, and Gq-Biased 5-HT2C Receptor Partial Agonists” (ACS Med Chem Lett, 2024)
The source made the active and inactive calls. No cut-off for these calls is given here.

Columns and labels:
[1] = target: T1, 5-hydroxytryptamine receptor 2C (Homo sapiens) (UniProt P28335); experiment: Partial agonist activity at human 5-HT2CR expressed in human Flp-In-T-REx-293 cells assessed as increase in calcium flux upto 10 uM incubated for 60 mins followed by incubation for 30 mins in dark by Flou-4 dye based FLIPR assay; type: functional, cell-based; conditions: time 90.0 min
T1 sequence (whole entry): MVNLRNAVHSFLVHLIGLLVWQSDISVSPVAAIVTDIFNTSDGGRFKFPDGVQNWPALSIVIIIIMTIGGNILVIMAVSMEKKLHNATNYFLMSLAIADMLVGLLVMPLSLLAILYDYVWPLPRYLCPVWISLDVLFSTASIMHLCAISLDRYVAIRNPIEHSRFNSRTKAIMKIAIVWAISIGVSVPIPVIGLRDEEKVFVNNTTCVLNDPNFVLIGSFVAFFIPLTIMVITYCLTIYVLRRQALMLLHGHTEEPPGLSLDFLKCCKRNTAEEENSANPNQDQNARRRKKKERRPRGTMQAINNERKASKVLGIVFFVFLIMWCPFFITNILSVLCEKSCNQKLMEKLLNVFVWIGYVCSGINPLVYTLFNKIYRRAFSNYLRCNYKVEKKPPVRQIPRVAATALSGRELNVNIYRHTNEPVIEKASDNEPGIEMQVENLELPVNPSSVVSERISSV

[2] = target: T2, 5-hydroxytryptamine receptor 2C (Homo sapiens, UniProt P28335); experiment: Partial agonist activity at human 5-HT2CR expressed in human Flp-In-T-REx-293 cells assessed as increase in calcium flux incubated for 60 mins followed by incubation for 30 mins in dark by Flou-4 dye based FLIPR assay; type: functional, cell-based
T2 sequence (P28335 whole entry): T1 sequence (whole entry)

[3] = target: T1, 5-hydroxytryptamine receptor 2C (Homo sapiens); experiment: Partial agonist activity at human 5-HT2CR expressed in human Flp-In-T-REx-293 cells assessed as increase in calcium flux by measuring maximal efficacy incubated for 60 mins followed by incubation for 30 mins in dark by Flou-4 dye based FLIPR assay relative to control; type: functional, cell-based; conditions: time 90.0 min
[4] = target: 5-hydroxytryptamine receptor 2A (Homo sapiens) (UniProt P28223); experiment: Partial agonist activity at human 5-HT2AR expressed in human Flp-In-T-REx-293 cells assessed as increase in calcium flux upto 10 uM incubated for 60 mins followed by incubation for 30 mins in dark by Flou-4 dye based FLIPR assay; type: functional, cell-based; conditions: time 90.0 min
[5] = target: T1, 5-hydroxytryptamine receptor 2C (Homo sapiens); experiment: Partial agonist activity at Rluc-tagged 5-HT2CR (unknown origin) transfected in HEK293T cells assessed as beta-arrestin-2 recruitment incubated for 10 mins by coelenterazine 400a based BRET assay; type: functional, cell-based
[6] = target: T3, 5-hydroxytryptamine receptor 2B (Homo sapiens, UniProt P41595); experiment: Partial agonist activity at human 5-HT2BR expressed in human Flp-In-T-REx-293 cells assessed as increase in calcium flux incubated for 60 mins followed by incubation for 30 mins in dark by Flou-4 dye based FLIPR assay; type: functional, cell-based
[7] = target: T3, 5-hydroxytryptamine receptor 2B; experiment: Partial agonist activity at human 5-HT2BR expressed in human Flp-In-T-REx-293 cells assessed as increase in calcium flux by measuring maximal efficacy incubated for 60 mins followed by incubation for 30 mins in dark by Flou-4 dye based FLIPR assay relative to control; type: functional, cell-based; conditions: time 90.0 min
[8] = target: T3, 5-hydroxytryptamine receptor 2B; experiment: Partial agonist activity at human 5-HT2BR expressed in human Flp-In-T-REx-293 cells assessed as increase in calcium flux upto 10 uM incubated for 60 mins followed by incubation for 30 mins in dark by Flou-4 dye based FLIPR assay; type: functional, cell-based; conditions: time 90.0 min
hERG (KCNH2) [9] = target: T4, hERG (KCNH2) (Homo sapiens, UniProt Q12809); experiment: Inhibition of hERG at 10 uM relative to control; type: toxicity
[10] = target: T1, 5-hydroxytryptamine receptor 2C (Homo sapiens); experiment: Agonist activity at human 5-HT2CR expressed in human Flp-In-T-REx-293 cells assessed as increase in calcium flux by measuring maximal efficacy incubated for 60 mins followed by incubation for 30 mins in dark by Flou-4 dye based FLIPR assay; type: functional, cell-based; conditions: filed as agonist, time 90.0 min
[11] = target: T2, 5-hydroxytryptamine receptor 2C; experiment: Agonist activity at human 5-HT2CR expressed in human Flp-In-T-REx-293 cells assessed as increase in calcium flux incubated for 60 mins followed by incubation for 30 mins in dark by Flou-4 dye based FLIPR assay; type: functional, cell-based
hERG (KCNH2) [12] = target: T4, hERG (KCNH2); experiment: Inhibition of hERG expressed in CHO cells at 10 uM by automated patch clamp method relative to control; type: toxicity, cell-based; conditions: CHO cells that express hERG

5-hydroxytryptamine receptor 2A (Homo sapiens), sequence (P28223 whole entry): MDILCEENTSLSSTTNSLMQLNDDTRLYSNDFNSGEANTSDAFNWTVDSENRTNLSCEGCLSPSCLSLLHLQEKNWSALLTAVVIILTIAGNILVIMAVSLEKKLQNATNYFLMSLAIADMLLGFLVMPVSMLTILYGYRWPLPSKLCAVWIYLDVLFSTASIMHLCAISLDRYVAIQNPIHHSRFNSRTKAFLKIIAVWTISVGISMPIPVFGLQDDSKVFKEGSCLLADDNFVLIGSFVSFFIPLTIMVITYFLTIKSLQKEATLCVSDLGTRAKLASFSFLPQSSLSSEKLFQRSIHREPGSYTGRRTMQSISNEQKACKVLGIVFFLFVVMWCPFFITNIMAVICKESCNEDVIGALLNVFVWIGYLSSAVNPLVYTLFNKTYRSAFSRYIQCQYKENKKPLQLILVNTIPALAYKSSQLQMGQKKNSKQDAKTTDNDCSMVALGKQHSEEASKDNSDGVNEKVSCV
T3 sequence (P41595 whole entry): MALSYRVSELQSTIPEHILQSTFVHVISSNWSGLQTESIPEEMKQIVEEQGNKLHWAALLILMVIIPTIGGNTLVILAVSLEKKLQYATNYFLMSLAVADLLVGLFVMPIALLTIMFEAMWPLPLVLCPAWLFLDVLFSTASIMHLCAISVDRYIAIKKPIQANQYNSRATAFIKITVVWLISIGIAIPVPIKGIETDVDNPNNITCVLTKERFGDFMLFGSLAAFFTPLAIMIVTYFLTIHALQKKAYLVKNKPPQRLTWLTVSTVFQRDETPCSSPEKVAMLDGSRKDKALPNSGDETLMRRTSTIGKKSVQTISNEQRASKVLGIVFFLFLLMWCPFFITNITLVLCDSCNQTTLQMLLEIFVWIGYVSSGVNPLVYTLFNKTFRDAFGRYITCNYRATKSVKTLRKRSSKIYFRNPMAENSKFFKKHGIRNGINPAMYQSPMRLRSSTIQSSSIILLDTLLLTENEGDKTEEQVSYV
T4 sequence (Q12809 whole entry): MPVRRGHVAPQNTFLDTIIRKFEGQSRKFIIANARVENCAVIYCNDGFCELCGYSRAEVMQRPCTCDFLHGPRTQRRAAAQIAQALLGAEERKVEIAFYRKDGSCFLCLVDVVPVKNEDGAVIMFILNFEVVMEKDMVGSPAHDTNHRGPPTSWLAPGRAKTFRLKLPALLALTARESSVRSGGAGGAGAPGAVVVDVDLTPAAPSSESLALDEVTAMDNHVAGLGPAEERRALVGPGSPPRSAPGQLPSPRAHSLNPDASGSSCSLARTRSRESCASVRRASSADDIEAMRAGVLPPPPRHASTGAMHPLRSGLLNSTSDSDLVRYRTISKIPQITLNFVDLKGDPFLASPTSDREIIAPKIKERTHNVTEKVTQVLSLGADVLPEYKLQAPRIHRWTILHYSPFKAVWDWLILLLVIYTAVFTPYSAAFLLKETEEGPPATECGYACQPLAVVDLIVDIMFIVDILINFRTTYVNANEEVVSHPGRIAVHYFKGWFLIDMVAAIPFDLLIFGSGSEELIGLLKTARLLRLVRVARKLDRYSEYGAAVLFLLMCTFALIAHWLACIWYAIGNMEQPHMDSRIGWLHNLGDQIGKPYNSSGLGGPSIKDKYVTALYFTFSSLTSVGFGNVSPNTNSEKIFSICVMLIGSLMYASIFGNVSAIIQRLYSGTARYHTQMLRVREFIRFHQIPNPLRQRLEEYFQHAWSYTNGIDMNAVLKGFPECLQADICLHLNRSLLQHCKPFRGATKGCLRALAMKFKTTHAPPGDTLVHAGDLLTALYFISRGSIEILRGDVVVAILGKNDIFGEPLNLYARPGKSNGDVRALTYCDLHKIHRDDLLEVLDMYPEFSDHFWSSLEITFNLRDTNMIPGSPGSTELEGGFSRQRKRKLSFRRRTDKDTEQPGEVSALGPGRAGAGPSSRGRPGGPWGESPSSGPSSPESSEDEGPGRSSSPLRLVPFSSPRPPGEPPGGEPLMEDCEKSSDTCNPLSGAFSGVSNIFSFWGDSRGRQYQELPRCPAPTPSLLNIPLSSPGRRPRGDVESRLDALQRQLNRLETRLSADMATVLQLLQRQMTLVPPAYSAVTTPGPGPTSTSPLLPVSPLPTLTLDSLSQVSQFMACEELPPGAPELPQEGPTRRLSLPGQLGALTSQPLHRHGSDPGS

| Structure (SMILES) | Activity [1] | EC50 ([2]; read-out: EC50) [nM] | Emax ([3]; filed as partial agonist) [%] | further results |
| --- | --- | --- | --- | --- |
| Clc1ccc2c(c1)OC1(C=C2)CCCNC1 (stereo not given) | inactive |  |  |  |
| C[C@@H]1CC2(C=Cc3ccc(Cl)cc3O2)CCN1 (stereo not given in full) | inactive | 950 | 82.5 |  |
| COc1cccc2c1C=CC1(CCNCC1)O2 | inactive |  |  |  |
| Brc1ccc2c(c1)OC1(C=C2)CCNCC1 |  | 488 | 72.6 |  |
| COc1ccc2c(c1)OC1(C=C2)CCNCC1 |  | 3740 | 50.4 |  |
| Clc1ccc2c(c1)OC1(C=C2)CC2CCC(C1)N2 (stereo not given) | inactive |  |  |  |
| c1ccc2c(c1)CCC1(CCNCC1)O2 | inactive |  |  |  |
| C1=CC2(CCNCC2)Oc2ccccc21 |  | 147 | 85.9 | Activity [4]: inactive; Activity [5]: inactive; EC50 [6]: 897 nM; Emax [7]: 19.4% |
| CC1CNCCC12C=Cc1ccc(Cl)cc1O2 (stereo in doubt; 29b) [listing 1 of 2 here] |  |  | 73.7 |  |
| COc1ccc2c(c1)C=CC1(CCNCC1)O2 | inactive |  |  |  |
| Cc1ccc2c(c1)OC1(C=C2)CCNCC1 | inactive |  |  |  |
| Clc1ccc2c(c1Cl)OC1(C=C2)CCNCC1 | inactive |  |  |  |
| Cc1cccc2c1C=CC1(CCNCC1)O2 |  | 170 | 55.2 |  |
| Clc1ccc2c(c1)OC1(C=C2)CCCNCC1 (stereo not given) |  | 3110 |  | Emax [3]: 26.2% |
| Clc1ccc2c(c1)OC1(C=C2)CCNC1 (stereo not given) |  | 330 | 44.7 |  |
| NC1CCC2(C=Cc3ccc(Cl)cc3O2)CC1 (stereo not given) |  | 3380 | 69 |  |
| OC1CC2(CCNCC2)Oc2ccccc21 (stereo not given) | inactive |  |  |  |
| CC1CNCCC12C=Cc1ccc(Cl)cc1O2 (stereo in doubt; 29a) [listing 1 of 2 here] |  | 476 |  |  |

| Structure (SMILES) | Activity [1] | EC50 ([2]; read-out: EC50) [nM] | Emax ([3]; filed as partial agonist) [%] | further results |
| --- | --- | --- | --- | --- |
| Fc1cccc2c1OC1(C=C2)CCNCC1 |  | 929 | 64.4 |  |
| Clc1cc(Cl)c2c(c1)OC1(C=C2)CCNCC1 | inactive |  |  |  |
| COc1ccc2c3c1-c1ccccc1CC3NCC2 (stereo not given) |  |  |  | Activity [8]: inactive; Activity [4]: inactive; EC50 ([2]; read-out: pEC50 (converted)): 100 nM; inhibition at 10 µM (hERG (KCNH2) [9]): 92.7% |
| Fc1ccc2c(c1)OC1(C=C2)CCNCC1 |  |  |  | Emax [10]: 91.4%; EC50 [11]: 158 nM |
| Clc1cccc2c1C=CC1(CCNCC1)O2 |  |  |  | Emax [10]: 81.9%; Activity [4]: inactive; EC50 [11]: 31 nM; EC50 [6]: 68.4 nM; Emax [7]: 34.1% |
| Cc1cccc2c1OC1(C=C2)CCNCC1 |  | 2060 |  | Emax [3]: 22.4% |
| C[C@H]1CC2(C=Cc3ccc(Cl)cc3O2)CCN1 (stereo in doubt; 31a) | inactive |  |  |  |
| Fc1ccc2c(c1)C=CC1(CCNCC1)O2 |  | 3060 | 49.5 |  |
| Clc1cccc2c1OC1(C=C2)CCNCC1 |  | 150 | 75.7 | Activity [4]: inactive; EC50 [6]: 470 nM; Emax [7]: 30.9% |
| CC1CNCCC12C=Cc1ccc(Cl)cc1O2 (stereo in doubt; 29a) [listing 2 of 2 here] |  |  | 80 |  |
| Clc1ccc2c(c1)OC1(C=C2)CCNCC1 |  | 121 | 71.1 | Activity [4]: inactive; Activity [5]: inactive; inhibition at 10 µM (hERG (KCNH2) [12]): 43.9% |
| O=C1CC2(CCNCC2)Oc2ccccc21 | inactive |  |  |  |
| Cc1ccc2c(c1)C=CC1(CCNCC1)O2 | inactive |  |  |  |
| Clc1ccc2c(c1)OC1(C=C2)CNC1 |  | 2490 | 58.5 |  |
| C[C@H]1CC2(C=Cc3ccc(Cl)cc3O2)CCN1 (stereo in doubt; 31b) | inactive |  |  |  |
| CC1CNCCC12C=Cc1ccc(Cl)cc1O2 (stereo in doubt; 29b) [listing 2 of 2 here] |  | 2650 |  |  |
| Clc1ccc2c(c1)C=CC1(CCNCC1)O2 |  | 215 |  | EC50 ([2]; read-out: pEC50 (converted)): 2000 nM; Emax [3]: 36.3% |
